These results are taken from ChEMBL document CHEMBL5046319, “Development of Low-Molecular-Weight Compounds Targeting the Cancer-Associated KLF5 Transcription Factor” (ACS Med Chem Lett, 2022).

The subject of series [1] is SW480. Briefly: Antiproliferative activity against human SW480 cells assessed as cell growth inhibition measured after 72 hrs by Cell Counting Kit-8 assay. The class given is functional, cell-based. To be noted: SW480, 72 h. Background: Formazan colour is commonly taken as a measure of viable cells.
Series [2] concerns HCT-116. Briefly: Antiproliferative activity against human HCT-116 cells assessed as cell growth inhibition measured after 72 hrs by Cell Counting Kit-8 assay. The class given is functional, cell-based. To be noted: HCT-116, 72 h.
Series [3] concerns CCD-841CoN. Briefly: Cytotoxicity against human CCD-841 cells assessed as cell growth inhibition measured after 72 hrs by Cell Counting Kit-8 assay. The class given is toxicity, cell-based.
For series [4], the system named is SW480. Briefly: Inhibition of Wnt signalling in human SW480 cells assessed as reduction in survivin expression at 10 uM measured after 24 hrs by western blot analysis. The class given is cell-based. In general terms: A western blot detects proteins with antibodies after separation by electrophoresis.
Series [5] deals with SW480. Briefly: Inhibition of Wnt signalling in human SW480 cells assessed as reduction in TCF4 expression at 10 uM measured after 24 hrs by western blot analysis. The class given is cell-based.
Series [6] has as its system SW480. Briefly: Inhibition of Wnt signalling in human SW480 cells assessed as reduction in phosphorylation of beta-catenin at ser552 residues at 10 uM measured after 24 hrs by western blot analysis. The class given is cell-based.
Series [7] has as its system SW480. Briefly: Inhibition of Wnt signalling in human SW480 cells assessed as reduction in KLF5 expression at 10 uM measured after 24 hrs by western blot analysis. The class given is cell-based.
Series [8] has as its system SW480. Briefly: Inhibition of Wnt signalling in human SW480 cells assessed as reduction in KLF5 mRNA expression at 10 uM measured after 24 hrs by RT-PCR analysis. The class given is cell-based.
Series [9] concerns CCD-841CoN. Briefly: Inhibition of Wnt signalling in human CCD841 cells assessed as reduction in KLF5 expression at 10 uM measured after 24 hrs by western blot analysis. The class given is cell-based.
The subject of series [10] is CCD-841CoN. Briefly: Inhibition of Wnt signalling in human CCD841 cells assessed as reduction in survivin expression at 10 uM measured after 24 hrs by western blot analysis. The class given is cell-based.
For series [11], the system named is CCD-841CoN. Briefly: Inhibition of Wnt signalling in human CCD841 cells assessed as reduction in TCF4 expression at 10 uM measured after 24 hrs by western blot analysis. The class given is cell-based.
Series [12] concerns SW480. Briefly: Antiproliferative activity against human SW480 cells assessed as inhibition of cell proliferation at 100 uM incubated for 72 hrs by CCK-8 assay. The class given is functional, cell-based.
Series [13] deals with HCT-116. Briefly: Antiproliferative activity against human HCT-116 cells assessed as inhibition of cell proliferation at 100 uM incubated for 72 hrs by CCK-8 assay. The class given is functional, cell-based.
Series [14] deals with CCD-841CoN. Briefly: Cytotoxicity against human CCD841 cells assessed as inhibition of cell proliferation at 100 uM incubated for 72 hrs by CCK-8 assay. The class given is toxicity, cell-based.
Series [15] has as its system SW480. Briefly: Inhibition of Wnt2 signalling in human SW480 cells assessed as reduction in cyclin D1 expression at 10 uM measured after 24 hrs by western blot analysis. The class given is cell-based.
For series [16], the system named is HT-29. Briefly: Antitumour activity against human HT-29 cells subcutaneously transplanted in nude mouse assessed as reduction in tumor volume at 2 mg, ip administered twice per day for 8 days. The class given is functional, organism-based. Particulars: time 8.0 day.
Series [17] concerns SW480. Briefly: Inhibition of Wnt signalling in human SW480 cells assessed as reduction in phosphorylation of beta-catenin at ser675 residue at 10 uM measured after 24 hrs by western blot analysis. The class given is cell-based.
For series [18], the system named is SW480. Briefly: Inhibition of USP3-KLF5 protein complex formation in human SW480 cells assessed as reduction in beta-catenin expression at 10 uM measured after 24 hrs by western blot analysis. The class given is cell-based.
Series [19] has as its system CCD-841CoN. Briefly: Inhibition of Wnt signalling in human CCD841 cells assessed as reduction in cyclin D1 expression at 10 uM measured after 24 hrs by western blot analysis. The class given is cell-based.
Series [20] has as its system CCD-841CoN. Briefly: Inhibition of Wnt signalling in human CCD841 cells assessed as reduction in phosphorylation of beta-catenin at ser675 residue at 10 uM measured after 24 hrs by western blot analysis. The class given is cell-based.
Series [21] can be described thus: Toxicity in nude mouse transplanted subcutaneously with human HT-29 cells assessed as abnormality in epithelial cell integrity at 2 mg, ip administered twice daily for 8 days by H and E staining based assay. The class given is organism-based. Particulars: in vivo, 192 h, time 8 day.
Series [22] is described as follows: Toxicity in nude mouse transplanted subcutaneously with human HT-29 cells assessed as abnormality in villi formation at 2 mg, ip administered twice daily for 8 days by H and E staining based assay. The class given is organism-based. To be noted: in vivo, 192 h, time 8 day.
In series [23] the test system is HEK293T. Briefly: Inhibition of USP3-KLF5 protein complex formation in HEK293T cells overexpressing Myc tag-USP3 and FLAG/HA-KLF5 proteins assessed as reduction in KLF5 expression at 20 uM measured after 4 hrs by western blot analysis. The class given is cell-based. To be noted: Homo sapiens.

As usually defined, the IC50 is the point on the concentration scale where inhibition reaches its midpoint.

Structures are written as SMILES. Activity calls are given as the source filed them. The rule behind the calls is not given here.

With `CCCC[C@H]1CN(Cc2ccccc2)C[C@@H]2N(C(=O)OCC(C)C)O[C@H](C(C)C)C(=O)N12`, the IC50 in series [1] and in series [2] was 5.1 µM throughout. For the same molecule, the Activity entry in [3] is given as “Non-Toxic”. The outcome in [4], in series [5], in series [6] and in series [7] was Active. Also, the outcome in series [8], in [9], in [10] and in series [11] was inactive.
As for `O=C1[C@H](Cc2ccc(O)cc2)N2C(=O)CCN(C(=O)NCc3ccccc3)[C@H]2CN1Cc1cccc2ccccc12`, the outcome in [12] and in [13] was Active. The Activity entry in series [14] is given as “Toxic”.
In the case of `CC[C@H](C)[C@H](NC(=O)OCC1c2ccccc2-c2ccccc21)C(=O)O`, the outcome in [12] and in series [13] was Active. In series [14], the Activity result is “Toxic”.
In the case of `CC(C)[C@H](O)C(=O)O`, the outcome in series [12] and in series [13] was Active. For the same molecule, in [14], the Activity entry was “Toxic”.
As to `CCOC(CNCc1ccccc1)OCC`, the outcome in series [12] and in [13] was Active. The Activity result in series [14] was “Toxic”.
As for `CCOC(CN(Cc1ccccc1)C(=O)[C@@H](N)[C@@H](C)CC)OCC`, the result in series [12] and in [13] was Active. Further, the Activity entry in series [14] is “Toxic”.
`CC(C)[C@@H](ON1C(=O)c2ccccc2C1=O)C(=O)OCc1ccccc1`: the result in series [12] and in series [13] was Active. The Activity entry in series [14] was “Toxic”.
For `CC(C)[C@H](O)C(=O)OCc1ccccc1`, the outcome in [12] and in series [13] was Active. Further, in series [14], the Activity result is “Toxic”.
Consider `O=C1c2ccccc2C(=O)N1O`, for which the result in [12] and in series [13] was Active. The Activity entry in series [14] is reported as “Toxic”.
As for `CCOC(CN(Cc1ccccc1)C(=O)[C@@H](NC(=O)OCC1c2ccccc2-c2ccccc21)[C@@H](C)CC)OCC`, the result in [12] and in series [13] was Active. For the same molecule, the Activity entry in series [14] is recorded as “Toxic”.
As for `CC(C)COC(=O)N1O[C@H](C(C)C)C(=O)N2[C@@H](CC(C)C)CN(Cc3ccccc3)C[C@H]12`, the IC50 in series [1] and in series [2] was 5.1 µM throughout. Also, the Activity result in series [3] was “Non-Toxic”. For the same molecule, the result in [4], in [5], in [6] and in series [7] was Active. The outcome in [8], in [9], in [10] and in series [11] was inactive.
On to `CCOC(CN)OCC`, for which the outcome in series [12] and in series [13] was Active. Further, the Activity entry in [14] is “Toxic”.
For `CC(C)[C@@H](ON)C(=O)OCc1ccccc1`, the outcome in series [12] and in [13] was Active. Moreover, the Activity result in series [14] is “Toxic”.
On to `CC[C@H](C)[C@H]1CN(Cc2ccccc2)C[C@@H]2N(C(=O)OCC(C)C)O[C@H](C(C)C)C(=O)N12`, for which the IC50 in series [1] and in series [2] was 2.5 µM each time. Further, the Activity result in series [3], in series [21] and in series [22] was “Non-Toxic” throughout. Besides, the outcome in series [4], in series [5], in [6], in series [15], in series [16] and in series [7] was Active. Further, the outcome in series [17], in [18] and in [23] was Active. Also, the outcome in series [19] and in series [20] was inactive.
Consider `O=Cc1ccccc1` [BENZALDEHYDE], for which the outcome in [12] and in [13] was Active. In addition, the Activity entry in series [14] is listed as “Toxic”.
